Measured values taken from PMC9901219 (European Journal of Medicinal Chemistry, 2023).
pIC50: −log10 of the molar value.

How the values were obtained:
SARS-CoV-2 3CLpro [1] = target: T1, SARS-CoV-2 3CLpro (Severe acute respiratory syndrome coronavirus 2, UniProt P0DTD1); test: biochemical
[2] = Stability of compound in enzymatic assay buffer with GSH; assay type: physicochemical
SARS-CoV-2 3CLpro [3] = target: T1, SARS-CoV-2 3CLpro; assay type: binding
Cathepsin L = Cathepsin L (Homo sapiens, UniProt P07711); assay type: biochemical; conditions: calpain 1 and cathepsin L versus SARS-CoV-2 3CLpro
SARS-CoV-2 3CLpro [4] = target: T1, SARS-CoV-2 3CLpro; assay type: biochemical
Human Calpain 1 = target: T2, Human Calpain 1 (Homo sapiens, UniProt P07384); test: Calpain assay; assay type: biochemical
T2 sequence (P07384 1-714): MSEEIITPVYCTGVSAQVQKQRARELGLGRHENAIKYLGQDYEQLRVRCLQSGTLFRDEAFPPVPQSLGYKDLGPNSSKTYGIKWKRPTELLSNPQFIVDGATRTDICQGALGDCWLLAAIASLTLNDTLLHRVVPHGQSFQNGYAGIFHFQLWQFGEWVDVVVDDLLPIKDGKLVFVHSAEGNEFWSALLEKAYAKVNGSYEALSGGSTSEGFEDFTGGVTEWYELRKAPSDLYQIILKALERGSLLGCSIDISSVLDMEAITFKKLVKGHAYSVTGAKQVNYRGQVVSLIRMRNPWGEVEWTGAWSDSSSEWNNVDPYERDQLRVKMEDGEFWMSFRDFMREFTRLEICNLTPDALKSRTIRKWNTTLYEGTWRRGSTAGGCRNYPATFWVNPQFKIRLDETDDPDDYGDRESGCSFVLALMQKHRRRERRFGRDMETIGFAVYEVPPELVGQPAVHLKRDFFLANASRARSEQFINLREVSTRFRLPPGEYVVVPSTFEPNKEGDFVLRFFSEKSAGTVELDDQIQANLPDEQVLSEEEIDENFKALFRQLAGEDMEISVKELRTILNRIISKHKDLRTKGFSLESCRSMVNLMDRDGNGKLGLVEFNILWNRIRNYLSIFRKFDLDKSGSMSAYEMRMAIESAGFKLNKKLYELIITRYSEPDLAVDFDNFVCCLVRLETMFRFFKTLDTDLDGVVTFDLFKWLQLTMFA
T2 sequence (P04632 1-268 partner): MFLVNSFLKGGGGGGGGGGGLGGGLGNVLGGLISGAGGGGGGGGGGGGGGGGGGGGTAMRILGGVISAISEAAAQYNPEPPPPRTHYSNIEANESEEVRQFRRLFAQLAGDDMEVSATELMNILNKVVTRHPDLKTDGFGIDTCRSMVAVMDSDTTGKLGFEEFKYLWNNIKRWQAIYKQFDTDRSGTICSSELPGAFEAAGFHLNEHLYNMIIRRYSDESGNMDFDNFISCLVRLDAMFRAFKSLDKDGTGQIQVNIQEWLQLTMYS

Chain of Cathepsin L (P07711 114-333): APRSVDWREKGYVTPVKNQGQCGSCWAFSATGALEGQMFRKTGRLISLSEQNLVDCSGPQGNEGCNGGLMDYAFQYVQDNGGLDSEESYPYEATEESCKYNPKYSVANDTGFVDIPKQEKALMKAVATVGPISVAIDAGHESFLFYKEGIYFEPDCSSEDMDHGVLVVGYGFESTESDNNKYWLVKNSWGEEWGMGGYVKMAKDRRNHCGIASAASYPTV

Compound: Cc1cccc2nc(CNC(=S)NCc3cccnc3)cn12 [Compound 1A, 1-((5-methylimidazo[1,2-a]pyridin-2-yl)methyl)-3-(pyridin-3-ylmethyl)thiourea]
- Assay without GSH pIC50 ± SD (SARS-CoV-2 3CLpro [1]): 4.46 ± 0.19
- inhibitory effect on SARS-CoV-2 3CLpro (SARS-CoV-2 3CLpro [1]): inactive

Compound: CCSC(=S)NCc1cccnc1 [Compound 1B, Ethyl (pyridin-3-ylmethyl)carbamodithioate]
- fold lower potency compared to compound 1 (SARS-CoV-2 3CLpro [1]): 8 fold

Compound: S=C(NCc1cccnc1)OCc1ccccc1 [Compound 1D, O-benzyl(pyridin-3-ylmethyl)carbamothioate]
- inhibitory effect on SARS-CoV-2 3CLpro (SARS-CoV-2 3CLpro [1]): inactive

Compound: CC(=O)[O-].CC(=O)[O-].[Zn+2] [zinc acetate, reference compound]
- inhibitory activity in presence of zinc chelator EDTA (SARS-CoV-2 3CLpro [1]): completely loose its inhibitory activity

Compound: Cc1cccc2nc(CSC(=S)NCc3cccnc3)cn12 [Compound 1, (5-methylimidazo[1,2-a]pyridin-2-yl)methyl (pyridin-3-ylmethyl)carbamodithioate]
- disappearance of the compound ([2]; 100 μM in enzymatic assay buffer, 2 mM GSH, 1.5 h incubation): less than 10%
- reaction conversion with GSH ([2]; after 90 min, GSH 2 mM): < 10%
- Thermal shift ΔTm of SARS-CoV-2 3CLpro with GSH (SARS-CoV-2 3CLpro [3]): 11.33 °C
- selectivity over two human cysteine proteases (Cathepsin L): more than 80 fold
- enzyme inhibition after jump dilution (SARS-CoV-2 3CLpro [4]): around 80%
- enzyme inhibition after jump dilution (words) (SARS-CoV-2 3CLpro [4]): no more inhibition
- time within which inhibition is reversible (SARS-CoV-2 3CLpro [4]): ≤ 2 h
- Assay without GSH pIC50 ± SD (SARS-CoV-2 3CLpro [1]): 7.67 ± 0.30
- SARS-CoV-2 (Beta-CoV) 3CLpro pIC50 ± SD (SARS-CoV-2 3CLpro [1]): 0.021 (7.67 ± 0.30)
- pIC50 (SARS-CoV-2 3CLpro [1]; SARS-CoV-2 3CLpro IC50): 5.76
- pIC50 (Human Calpain 1): < 3.52
- Human Calpain 1 pIC50 ± SD (Human Calpain 1; GSH 2 mM, pre-incubation of 30 min): > 3.52
